Experimental data reported in US12528826B2, “[1,4]oxazepino[2,3-c]quinolinone derivatives as BCL6 inhibitors” (Cancer Research Technology Limited, priority 2019, dated 2026).

Target: T1, Trx-6×His-BCL6 (human BCL6 BTB domain covering amino-acid sequence 5-129) (Homo sapiens, UniProt P41182)
T1 construct: made in house
Test: HTRF assay (BCL6 / BCOR peptide)
Format: binding
Conditions: 1 nM Trx-6×His-BCL6, 300 nM BCOR-AF633 peptide, 2 hours incubation at room temperature
Description: After 2 hours incubation at room temperature the plate was read on a Pherastar FSX (BMG Labtech) plate reader equipped with 337 nm laser excitation filter, a first emission filter at 620 nm and a second emission filter at 665 nm. The % inhibition at each concentration was calculated by normalising FRET ratio to the appropriate high (DMSO with all reagents) and low (DMSO without BCL6) controls.

| Compound | HTRF avg pIC50 |
| --- | --- |
| (S)-10-((5-chloro-2-((3R,4S)-3-(hydroxymethyl)-4-methylpyrrolidin-1-yl)pyrimidin-4-yl)amino)-2-cyclopropyl-3,3-difluoro-7-methyl-1,2,3,4-tetrahydro-[1,4]oxazepino[2,3-c]quinolin-6(7H)-one:(S)-10-((5-chloro-2-((3S,4R)-3-(hydroxymethyl)-4-methylpyrrolidin-1-yl)pyrimidin-4-yl)amino)-2-cyclopropyl-3,3-difluoro-7-methyl-1,2,3,4-tetrahydro-[1,4]oxazepino[2,3-c]quinolin-6(7H)-one (1:1) [Example 11j] | 8.22 |
| (S)-10-((5-chloro-2-((R)-3,3-difluoro-5-hydroxypiperidin-1-yl)pyrimidin-4-yl)amino)-2-cyclopropyl-3,3-difluoro-7-methyl-1,2,3,4-tetrahydro-[1,4]oxazepino[2,3-c]quinolin-6(7H)-one:(S)-10-((5-chloro-2-((S)-3,3-difluoro-5-hydroxypiperidin-1-yl)pyrimidin-4-yl)amino)-2-cyclopropyl-3,3-difluoro-7-methyl-1,2,3,4-tetrahydro-[1,4]oxazepino[2,3-c]quinolin-6(7H)-one (1:1) [Example 12e] | 8.32 |

Same assay, conditions: 1 nM Trx-6×His-BCL6, 300 nM BCOR-AF633 peptide, 2 hours incubation at room temperature; read-out: HTRF avg pIC50 (converted)

| Compound | IC50 [nM] |
| --- | --- |
| CC1CCCN(c2ncc(Cl)c(Nc3ccc4c(c3)c3c(c(=O)n4C)OCC(F)(F)[C@H](C4CC4)N3)n2)C1CO (mixture of isomers) [Example 12x46, (2S)-10-((5-chloro-2-(2-(hydroxymethyl)-3-methylpiperidin-1-yl)pyrimidin-4-yl)amino)-2-cyclopropyl-3,3-difluoro-7-methyl-1,2,3,4-tetrahydro-[1,4]oxazepino[2,3-c]quinolin-6(7H)-one] | 11.2 |
| C[C@@H]1C[C@H](N)CN(c2ncc(Cl)c(Nc3ccc4c(c3)c3c(c(=O)n4C)OCC(F)(F)[C@H](C4CC4)N3)n2)C1 [Example 12b, (S)-10-((2-((3S,5R)-3-amino-5-methylpiperidin-1-yl)-5-chloropyrimidin-4-yl)amino)-2-cyclopropyl-3,3-difluoro-7-methyl-1,2,3,4-tetrahydro-[1,4]oxazepino[2,3-c]quinolin-6(7H)-one] | 2.51 |
| CC1CC(CC(=O)N2CC(F)(F)C2)CN(c2ncc(Cl)c(Nc3ccc4c(c3)c3c(c(=O)n4C)OCC(F)(F)[C@H](C4CC4)N3)n2)C1 (single isomer, unassigned) [Example 12x17a] | 3.98 |
| Cn1c(=O)c2c(c3cc(Nc4nc(N5CCC(F)(F)C(CC(=O)N6CCC6)C5)ncc4Cl)ccc31)N[C@@H](C1CC1)C(F)(F)CO2 (mixture of isomers) [Example 12x21, (2S)-10-((2-(3-(2-(azetidin-1-yl)-2-oxoethyl)-4,4-difluoropiperidin-1-yl)-5-chloropyrimidin-4-yl)amino)-2-cyclopropyl-3,3-difluoro-7-methyl-1,2,3,4-tetrahydro-[1,4]oxazepino[2,3-c]quinolin-6(7H)-one] | 3.55 |
| Cn1c(=O)c2c(c3cc(Nc4nc(NCC(C)(C)O)ncc4Cl)ccc31)N[C@@H](C1CC1)C(F)(F)CO2 [Example 1d, (S)-10-((5-chloro-2-((2-hydroxy-2-methylpropyl)amino)pyrimidin-4-yl)amino)-2-cyclopropyl-3,3-difluoro-7-methyl-1,2,3,4-tetrahydro-[1,4]oxazepino[2,3-c]quinolin-6(7H)-one] | 3.63 |
| CC1CCCCN(c2ncc(Cl)c(Nc3ccc4c(c3)c3c(c(=O)n4C)OCC(F)(F)[C@H](C4CC4)N3)n2)C1 (mixture of isomers) [Example 11c, (S)-10-((5-chloro-2-((R)-3-methylazepan-1-yl)pyrimidin-4-yl)amino)-2-cyclopropyl-3,3-difluoro-7-methyl-1,2,3,4-tetrahydro-[1,4]oxazepino[2,3-c]quinolin-6(7H)-one:(S)-10-((5-chloro-2-((S)-3-methylazepan-1-yl)pyrimidin-4-yl)amino)-2-cyclopropyl-3,3-difluoro-7-methyl-1,2,3,4-tetrahydro-[1,4]oxazepino[2,3-c]quinolin-6(7H)-one (1:1)] | 55 |
| Cn1c(=O)c2c(c3cc(Nc4ncncc4Cl)ccc31)N[C@@H](C1CC1)C(F)(F)CO2 [Example 6a, (S)-10-((5-chloropyrimidin-4-yl)amino)-2-cyclopropyl-3,3-difluoro-7-methyl-1,2,3,4-tetrahydro-[1,4]oxazepino[2,3-c]quinolin-6(7H)-one] | 14.1 |
| Cn1c(=O)c2c(c3cc(Nc4nc(N5CCCC(C)(F)C5)ncc4Cl)ccc31)N[C@@H](C1CC1)C(F)(F)CO2 (mixture of isomers) [Example 11z, (S)-10-((5-chloro-2-((R)-3-fluoro-3-methylpiperidin-1-yl)pyrimidin-4-yl)amino)-2-cyclopropyl-3,3-difluoro-7-methyl-1,2,3,4-tetrahydro-[1,4]oxazepino[2,3-c]quinolin-6(7H)-one:(S)-10-((5-chloro-2-((S)-3-fluoro-3-methylpiperidin-1-yl)pyrimidin-4-yl)amino)-2-cyclopropyl-3,3-difluoro-7-methyl-1,2,3,4-tetrahydro-[1,4]oxazepino[2,3-c]quinolin-6(7H)-one (1:1)] | 13.2 |
| C[C@@H]1CN(C)CCN(c2ncc(Cl)c(Nc3ccc4c(c3)c3c(c(=O)n4C)OCC(F)(F)[C@H](C4CC4)N3)n2)C1 [Example 12g, (S)-10-((5-chloro-2-((R)-4,6-dimethyl-1,4-diazepan-1-yl)pyrimidin-4-yl)amino)-2-cyclopropyl-3,3-difluoro-7-methyl-1,2,3,4-tetrahydro-[1,4]oxazepino[2,3-c]quinolin-6(7H)-one:(S)-10-((5-chloro-2-((S)-4,6-dimethyl-1,4-diazepan-1-yl)pyrimidin-4-yl)amino)-2-cyclopropyl-3,3-difluoro-7-methyl-1,2,3,4-tetrahydro-[1,4]oxazepino[2,3-c]quinolin-6(7H)-one (1:1)] | 2.63 |
| Cn1c(=O)c2c(c3cc(Nc4nc(N5CC(C)(C)C5)ncc4Cl)ccc31)N[C@@H](C1CC1)C(F)(F)CO2 [Example 11n, (S)-10-((5-chloro-2-(3,3-dimethylazetidin-1-yl)pyrimidin-4-yl)amino)-2-cyclopropyl-3,3-difluoro-7-methyl-1,2,3,4-tetrahydro-[1,4]oxazepino[2,3-c]quinolin-6(7H)-one] | 14.8 |
| Cc1noc(-c2cc(Nc3ccc4c(c3)c3c(c(=O)n4C)OCC(F)(F)[C@H](C4CC4)N3)c(Cl)cn2)n1 [Example 4a, (S)-10-((5-chloro-2-(3-methyl-1,2,4-oxadiazol-5-yl)pyridin-4-yl)amino)-2-cyclopropyl-3,3-difluoro-7-methyl-1,2,3,4-tetrahydro-[1,4]oxazepino[2,3-c]quinolin-6(7H)-one] | 3.47 |
| Cn1c(=O)c2c(c3cc(Nc4nc(N5CCN(C6CC6)C(=O)C5)ncc4Cl)ccc31)N[C@@H](C1CC1)C(F)(F)CO2 [Example 1b, (S)-10-((5-chloro-2-(4-cyclopropyl-3-oxopiperazin-1-yl)pyrimidin-4-yl)amino)-2-cyclopropyl-3,3-difluoro-7-methyl-1,2,3,4-tetrahydro-[1,4]oxazepino[2,3-c]quinolin-6(7H)-one] | 1.95 |
| Cn1c(=O)c2c(c3cc(Nc4nc(N5CCC(F)(CO)CC5)ncc4Cl)ccc31)N[C@@H](C1CC1)C(F)(F)CO2 [Example 9o, (S)-10-((5-chloro-2-(4-fluoro-4-(hydroxymethyl)piperidin-1-yl)pyrimidin-4-yl)amino)-2-cyclopropyl-3,3-difluoro-7-methyl-1,2,3,4-tetrahydro-[1,4]oxazepino[2,3-c]quinolin-6(7H)-one] | 9.33 |
| CN(C)C(=O)C1CC(F)CN(c2ncc(Cl)c(Nc3ccc4c(c3)c3c(c(=O)n4C)OCC(F)(F)[C@H](C4CC4)N3)n2)C1 (stereo partly drawn) [Example 12x39, 1-(5-chloro-4-(((S)-2-cyclopropyl-3,3-difluoro-7-methyl-6-oxo-1,2,3,4,6,7-hexahydro-[1,4]oxazepino[2,3-c]quinolin-10-yl)amino)pyrimidin-2-yl)-5-fluoro-N,N-dimethylpiperidine-3-carboxamide] | 2.51 |
| CN(C)C[C@@H]1CCCN(c2ncc(Cl)c(Nc3ccc4c(c3)c3c(c(=O)n4C)OCC(F)(F)[C@H](C4CC4)N3)n2)C1 [Example 9b, (S)-10-((5-chloro-2-((S)-3-((dimethylamino)methyl)piperidin-1-yl)pyrimidin-4-yl)amino)-2-cyclopropyl-3,3-difluoro-7-methyl-1,2,3,4-tetrahydro-[1,4]oxazepino[2,3-c]quinolin-6(7H)-one] | 3.09 |
| CN(C)c1ncc(F)c(Nc2ccc3c(c2)c2c(c(=O)n3C)OCC(F)(F)[C@H](C3CC3)N2)n1 [Example 13p12, (S)-2-cyclopropyl-10-((2-(dimethylamino)-5-fluoropyrimidin-4-yl)amino)-3,3-difluoro-7-methyl-1,2,3,4-tetrahydro-[1,4]oxazepino[2,3-c]quinolin-6(7H)-one] | 19.1 |
| C[C@H]1C[C@@H](O)CN(c2ncc(F)c(Nc3ccc4c(c3)c3c(c(=O)n4C)OCC(F)(F)[C@H](C4CC4)N3)n2)C1 [Example 2a, (S)-2-cyclopropyl-3,3-difluoro-10-((5-fluoro-2-((3R,5S)-3-hydroxy-5-methylpiperidin-1-yl)pyrimidin-4-yl)amino)-7-methyl-1,2,3,4-tetrahydro-[1,4]oxazepino[2,3-c]quinolin-6(7H)-one] | 2.4 |
| Cn1c(=O)c2c(c3cc(Nc4nc(N5CC6CCC(C5)N6CC5CC5(F)F)ncc4Cl)ccc31)N[C@@H](C1CC1)C(F)(F)CO2 (stereo partly drawn) [Example 9za, (2S)-10-((5-chloro-2-(8-((2,2-difluorocyclopropyl)methyl)-3,8-diazabicyclo[3.2.1]octan-3-yl)pyrimidin-4-yl)amino)-2-cyclopropyl-3,3-difluoro-7-methyl-1,2,3,4-tetrahydro-[1,4]oxazepino[2,3-c]quinolin-6(7H)-one] | 7.59 |
